Data from PubChem BioAssay AID330 (DTP/NCI, 2004).
“And” between values parts separate entries of the source, which are not always exact repeats. Identical values can stand only once. Inconclusive results and toxic doses are left out.

Tested on: P388 leukemia ip, CD2F1 mice, survival T/C
Test: NCI In Vivo Anticancer Drug Screen. Data for tumor model P388 Leukemia (intraperitoneal) in CD2F1 (CDF1) mice
Settings: endpoint: median survival time, higher = longer survival
How it was run: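 Mice carrying the transplanted tumor received test compound or vehicle. Survival was recorded in each group, and the value is the treated-group measurement divided by that of the vehicle-treated control group.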

[1] = dose: 50.0 mg/kg/injection, schedule: Q01DX005 (ip), vehicle: saline with Tween-80
[2] = dose: 100.0 mg/kg/injection, schedule: Q01DX005 (ip), vehicle: saline with Tween-80
[3] = dose: 200.0 mg/kg/injection, schedule: Q01DX005 (ip), vehicle: saline with Tween-80

## CC(=O)Oc1c(C)[nH]ccc1=O
dose: 25.0 mg/kg/injection, schedule: Q01DX009 (ip), vehicle: saline
  T/C: 103 % of control and 104 % of control
dose: 50.0 mg/kg/injection, schedule: Q01DX009 (ip), vehicle: saline
  T/C: 107 % of control and 112 % of control and 116 % of control
dose: 100.0 mg/kg/injection, schedule: Q01DX009 (ip), vehicle: saline
  T/C: 116 % of control
dose: 200.0 mg/kg/injection, schedule: Q01DX009 (ip), vehicle: saline
  T/C: 154 % of control
dose: 400.0 mg/kg/injection, schedule: Q01DX009 (ip), vehicle: saline
  T/C: 152 % of control and 161 % of control and 179 % of control
dose: 800.0 mg/kg/injection, schedule: Q01DX009 (ip), vehicle: saline
  T/C: 180 % of control

## NCC(=O)c1ccc2oc3ccccc3c2c1
dose: 100.0 mg/kg/injection, schedule: Q01DX009 (ip), vehicle: Klucel (hydroxypropylcellulose) (HPC)
  T/C: 112 % of control
dose: 200.0 mg/kg/injection, schedule: Q01DX009 (ip), vehicle: Klucel (hydroxypropylcellulose) (HPC)
  T/C: 118 % of control

## O=[N+]([O-])c1ccccc1C=Nc1ccc2nc(SCc3ccccc3)sc2c1
dose: 100.0 mg/kg/injection, schedule: Q04DX003 (ip), vehicle: Klucel (hydroxypropylcellulose) (HPC)
  T/C: 100 % of control
dose: 200.0 mg/kg/injection, schedule: Q04DX003 (ip), vehicle: Klucel (hydroxypropylcellulose) (HPC)
  T/C: 95 % of control
dose: 400.0 mg/kg/injection, schedule: Q04DX003 (ip), vehicle: Klucel (hydroxypropylcellulose) (HPC)
  T/C: 89 % of control

## C=C(C)C(Br)=C(C)C
dose: 12.5 mg/kg/injection, schedule: Q01DX001 (ip), vehicle: saline with Tween-80
  T/C: 108 % of control
dose: 25.0 mg/kg/injection, schedule: Q01DX001 (ip), vehicle: saline with Tween-80
  T/C: 107 % of control
dose: 50.0 mg/kg/injection, schedule: Q01DX001 (ip), vehicle: saline with Tween-80
  T/C: 99 % of control

## CN(c1ccccc1)c1c(Cl)c(=O)oc2c1ccc1nc(-c3ccccc3)sc12
[1]
  T/C: 86 % of control
[2]
  T/C: 90 % of control
[3]
  T/C: 86 % of control

## COc1cc2c(cc1OC)CN1CCc3cc(OC)c(OC)cc3C1C2 (configuration not stated)
[1]
  T/C: 99 % of control
[2]
  T/C: 94 % of control
[3]
  T/C: 91 % of control

## Cc1c2ccn(CCCCCCCCn3ccc4c(C)c5nc6ccccc6c5c(C)c4c3)cc2c(C)c2c1nc1ccccc12
dose: 3.13 mg/kg/injection, schedule: Q04DX003 (ip), vehicle: distilled water + Tween-80
  T/C: 118 % of control and 121 % of control
dose: 25.0 mg/kg/injection, schedule: Q04DX003 (ip), vehicle: distilled water + Tween-80
  T/C: 123 % of control

## CC(/C=C/c1ccco1)=N\O
dose: 12.5 mg/kg/injection, schedule: Q01DX009 (ip), vehicle: other
  T/C: 104 % of control
dose: 25.0 mg/kg/injection, schedule: Q01DX009 (ip), vehicle: other
  T/C: 100 % of control
dose: 50.0 mg/kg/injection, schedule: Q01DX009 (ip), vehicle: other
  T/C: 91 % of control

## COC(C)(C)c1ccc(C)c(O)c1
dose: 4.38 mg/kg/injection, schedule: Q01DX005 (ip), vehicle: Klucel (hydroxypropylcellulose) (HPC)
  T/C: 96 % of control
dose: 8.75 mg/kg/injection, schedule: Q01DX005 (ip), vehicle: Klucel (hydroxypropylcellulose) (HPC)
  T/C: 95 % of control
dose: 17.5 mg/kg/injection, schedule: Q01DX005 (ip), vehicle: Klucel (hydroxypropylcellulose) (HPC)
  T/C: 92 % of control
dose: 35.0 mg/kg/injection, schedule: Q01DX005 (ip), vehicle: Klucel (hydroxypropylcellulose) (HPC)
  T/C: 91 % of control

## CC(=O)NC1C(OC(C)=O)C(OC(C)=O)C(COC(C)=O)OC1[N+](=O)[O-] (configuration not stated)
dose: 60.0 mg/kg/injection, schedule: Q01DX005 (ip), vehicle: saline with Tween-80
  T/C: 101 % of control
dose: 120.0 mg/kg/injection, schedule: Q01DX005 (ip), vehicle: saline with Tween-80
  T/C: 94 % of control
dose: 240.0 mg/kg/injection, schedule: Q01DX005 (ip), vehicle: saline with Tween-80
  T/C: 99 % of control

## NC(CO)C(O)c1ccc(N=Nc2ccc(O)cc2)cc1 (configuration not stated)
dose: 25.0 mg/kg/injection, schedule: Q01DX009 (ip), vehicle: saline with Tween-80
  T/C: 95 % of control
dose: 50.0 mg/kg/injection, schedule: Q01DX009 (ip), vehicle: saline with Tween-80
  T/C: 100 % of control
dose: 100.0 mg/kg/injection, schedule: Q01DX009 (ip), vehicle: saline with Tween-80
  T/C: 95 % of control

## COc1cccc2c1C(=O)c1c(O)c3c(c(O)c1C2=O)CC(O)(c1csc(N2CCN(C)CC2)n1)CC3O (configuration not stated)
dose: 1.56 mg/kg/injection, schedule: Q01DX009 (ip), vehicle: water
  T/C: 87 % of control
dose: 3.13 mg/kg/injection, schedule: Q01DX009 (ip), vehicle: water
  T/C: 93 % of control
dose: 6.25 mg/kg/injection, schedule: Q01DX009 (ip), vehicle: water
  T/C: 110 % of control
dose: 12.5 mg/kg/injection, schedule: Q01DX009 (ip), vehicle: water
  T/C: 110 % of control
dose: 25.0 mg/kg/injection, schedule: Q01DX009 (ip), vehicle: water
  T/C: 105 % of control and 116 % of control
dose: 50.0 mg/kg/injection, schedule: Q01DX009 (ip), vehicle: water
  T/C: 102 % of control
dose: 100.0 mg/kg/injection, schedule: Q01DX009 (ip), vehicle: water
  T/C: 107 % of control
